Test results published in ChEMBL document CHEMBL5715952 (Oncotarget, 2015).

Columns and labels:
[1] = Ratio of IC50 for inhibition of B-RAFV600E/pERK in human ANBL6 cells assessed as reduction of cell viability to IC50 for inhibition of B-RAFV600E/pERK in human ANBL6/BR resistant cells assessed as reduction of cell viability; settings: condition multiple myeloma
[2] = Inhibition of B-RAFV600E/pERK in Melphalan Resistant human RPMI-8226 cells assessed as reduction of cell growth incubated for 72 hrs by CellTiter 96 aqueous one solution cell proliferation assay; type: cell-based; settings: Melphalan-resistant RPMI-8226 cell
[3] = Inhibition of B-RAFV600E/pERK in human U-266 cells assessed as reduction of cell growth incubated for 72 hrs by CellTiter 96 aqueous one solution cell proliferation assay; type: cell-based; settings: U-266, 72 h
[4] = Ratio of IC50 for inhibition of B-RAFV600E/pERK in human RPMI-8226 cells assessed as reduction of cell viability to IC50 for inhibition of B-RAFV600E/pERK in human RPMI-8226/BR resistant cells assessed as reduction of cell viability; settings: condition multiple myeloma
[5] = Inhibition of B-RAFV600E/pERK in bortezomib Resistant human RPMI-8226 cells assessed as reduction of cell growth incubated for 72 hrs by CellTiter 96 aqueous one solution cell proliferation assay; type: cell-based; settings: Bortezomib-resistant RPMI-8226, 72 h
[6] = Inhibition of B-RAF-V600E/pERK in human RPMI-8226 cells assessed as reduction of cell growth incubated for 72 hrs by CellTiter 96 aqueous one solution cell proliferation assay; type: cell-based; settings: RPMI-8226, 72 h
[7] = Ratio of IC50 for inhibition of B-RAFV600E/pERK in human RPMI-8226 cells assessed as reduction of cell viability to IC50 for inhibition of B-RAFV600E/pERK in human melphalan-resistant RPMI-8226 cells assessed as reduction of cell viability; settings: time 72 hrs; condition multiple myeloma
[8] = Inhibition of B-RAFV600E/pERK in human bortezomib-resistant ANBL6 cells assessed as reduction of cell growth incubated for 72 hrs by CellTiter 96 aqueous one solution cell proliferation assay; type: cell-based
[9] = Inhibition of B-RAFV600E/pERK in human ANBL-6 cells assessed as reduction of cell growth incubated for 72 hrs by CellTiter 96 aqueous one solution cell proliferation assay; type: cell-based; settings: ANBL-6, 72 h
[10] = Inhibition of CAMKK in bortezomib Resistant human RPMI-8226 cells assessed as reduction of cell growth incubated for 72 hrs by CellTiter 96 aqueous one solution cell proliferation assay; type: cell-based; settings: Bortezomib-resistant RPMI-8226, 72 h
[11] = Inhibition of CAMKK in Melphalan Resistant human RPMI-8226 cells assessed as reduction of cell growth incubated for 72 hrs by CellTiter 96 aqueous one solution cell proliferation assay; type: cell-based; settings: Melphalan-resistant RPMI-8226 cell
[12] = Ratio of IC50 for inhibition of CAMKK in human RPMI-8226 cells assessed as reduction of cell viability to IC50 for inhibition of CAMKK in human melphalan-resistant RPMI-8226 cells assessed as reduction of cell viability; settings: time 72 hrs; condition multiple myeloma
[13] = Ratio of IC50 for inhibition of CAMKK in human RPMI-8226 cells assessed as reduction of cell viability to IC50 for inhibition of CAMKK in human RPMI-8226/BR resistant cells assessed as reduction of cell viability; settings: condition multiple myeloma
[14] = Inhibition of CAMKK in human bortezomib-resistant ANBL6 cells assessed as reduction of cell growth incubated for 72 hrs by CellTiter 96 aqueous one solution cell proliferation assay; type: cell-based
[15] = Inhibition of CAMKK in human ANBL-6 cells assessed as reduction of cell growth incubated for 72 hrs by CellTiter 96 aqueous one solution cell proliferation assay; type: cell-based; settings: ANBL-6, 72 h
[16] = Inhibition of CAMKK in human RPMI-8226 cells assessed as reduction of cell growth incubated for 72 hrs by CellTiter 96 aqueous one solution cell proliferation assay; type: cell-based; settings: RPMI-8226, 72 h
[17] = Ratio of IC50 for inhibition of CAMKK in human ANBL6 cells assessed as reduction of cell viability to IC50 for inhibition of CAMKK in human ANBL6/BR resistant cells assessed as reduction of cell viability; settings: condition multiple myeloma
[18] = Inhibition of CAMKK in human U-266 cells assessed as reduction of cell growth incubated for 72 hrs by CellTiter 96 aqueous one solution cell proliferation assay; type: cell-based; settings: U-266, 72 h
[19] = Ratio of IC50 for inhibition of c-KIT/VEGFR1/B-Raf/RET/PDGFR in human RPMI-8226 cells assessed as reduction of cell viability to IC50 for inhibition of c-KIT/VEGFR1/B-Raf/RET/PDGFR in human RPMI-8226/BR resistant cells assessed as reduction of cell viability; settings: condition multiple myeloma
[20] = Inhibition of c-KIT/VEGFR1/B-Raf/RET/PDGFR in human ANBL-6 cells assessed as reduction of cell growth incubated for 72 hrs by CellTiter 96 aqueous one solution cell proliferation assay; type: cell-based; settings: ANBL-6, 72 h
[21] = Inhibition of c-KIT/VEGFR2/B-Raf/RET/PDGFR in human U-266 cells assessed as reduction of cell growth incubated for 72 hrs by CellTiter 96 aqueous one solution cell proliferation assay; type: cell-based; settings: U-266, 72 h
[22] = Inhibition of c-KIT/VEGFR2/B-Raf/RET/PDGFR in human ANBL-6 cells assessed as reduction of cell growth incubated for 72 hrs by CellTiter 96 aqueous one solution cell proliferation assay; type: cell-based; settings: ANBL-6, 72 h
[23] = Inhibition of c-KIT/VEGFR1/B-Raf/RET/PDGFR in Melphalan Resistant human RPMI-8226 cells assessed as reduction of cell growth incubated for 72 hrs by CellTiter 96 aqueous one solution cell proliferation assay; type: cell-based; settings: Melphalan-resistant RPMI-8226 cell
[24] = Inhibition of c-KIT/VEGFR2/B-Raf/RET/PDGFR in human bortezomib-resistant ANBL6 cells assessed as reduction of cell growth incubated for 72 hrs by CellTiter 96 aqueous one solution cell proliferation assay; type: cell-based
[25] = Ratio of IC50 for inhibition of c-KIT/VEGFR1/B-Raf/RET/PDGFR in human ANBL6 cells assessed as reduction of cell viability to IC50 for inhibition of c-KIT/VEGFR1/B-Raf/RET/PDGFR in human ANBL6/BR resistant cells assessed as reduction of cell viability; settings: condition multiple myeloma
[26] = Inhibition of c-KIT/VEGFR1/B-Raf/RET/PDGFR in human bortezomib-resistant ANBL6 cells assessed as reduction of cell growth incubated for 72 hrs by CellTiter 96 aqueous one solution cell proliferation assay; type: cell-based
[27] = Inhibition of c-KIT/VEGFR1/B-Raf/RET/PDGFR in bortezomib Resistant human RPMI-8226 cells assessed as reduction of cell growth incubated for 72 hrs by CellTiter 96 aqueous one solution cell proliferation assay; type: cell-based; settings: Bortezomib-resistant RPMI-8226, 72 h
[28] = Inhibition of c-KIT/VEGFR1/B-Raf/RET/PDGFR in human U-266 cells assessed as reduction of cell growth incubated for 72 hrs by CellTiter 96 aqueous one solution cell proliferation assay; type: cell-based; settings: U-266, 72 h
[29] = Ratio of IC50 for inhibition of c-KIT/VEGFR1/B-Raf/RET/PDGFR in human RPMI-8226 cells assessed as reduction of cell viability to IC50 for inhibition of c-KIT/VEGFR1/B-Raf/RET/PDGFR in human melphalan-resistant RPMI-8226 cells assessed as reduction of cell viability; settings: time 72 hrs; condition multiple myeloma
[30] = Ratio of IC50 for inhibition of c-KIT/VEGFR2/B-Raf/RET/PDGFR in human RPMI-8226 cells assessed as reduction of cell viability to IC50 for inhibition of c-KIT/VEGFR2/B-Raf/RET/PDGFR in human RPMI-8226/BR resistant cells assessed as reduction of cell viability; settings: condition multiple myeloma
[31] = Ratio of IC50 for inhibition of c-KIT/VEGFR2/B-Raf/RET/PDGFR in human ANBL6 cells assessed as reduction of cell viability to IC50 for inhibition of c-KIT/VEGFR2/B-Raf/RET/PDGFR in human ANBL6/BR resistant cells assessed as reduction of cell viability; settings: condition multiple myeloma
[32] = Ratio of IC50 for inhibition of c-KIT/VEGFR2/B-Raf/RET/PDGFR in human RPMI-8226 cells assessed as reduction of cell viability to IC50 for inhibition of c-KIT/VEGFR2/B-Raf/RET/PDGFR in human melphalan-resistant RPMI-8226 cells assessed as reduction of cell viability; settings: time 72 hrs; condition multiple myeloma
[33] = Inhibition of c-KIT/VEGFR2/B-Raf/RET/PDGFR in human RPMI-8226 cells assessed as reduction of cell growth incubated for 72 hrs by CellTiter 96 aqueous one solution cell proliferation assay; type: cell-based; settings: RPMI-8226, 72 h
[34] = Inhibition of c-KIT/VEGFR2/B-Raf/RET/PDGFR in Melphalan Resistant human RPMI-8226 cells assessed as reduction of cell growth incubated for 72 hrs by CellTiter 96 aqueous one solution cell proliferation assay; type: cell-based; settings: Melphalan-resistant RPMI-8226 cell
[35] = Inhibition of c-KIT/VEGFR1/B-Raf/RET/PDGFR in human RPMI-8226 cells assessed as reduction of cell growth incubated for 72 hrs by CellTiter 96 aqueous one solution cell proliferation assay; type: cell-based; settings: RPMI-8226, 72 h
[36] = Inhibition of c-KIT/VEGFR2/B-Raf/RET/PDGFR in bortezomib Resistant human RPMI-8226 cells assessed as reduction of cell growth incubated for 72 hrs by CellTiter 96 aqueous one solution cell proliferation assay; type: cell-based; settings: Bortezomib-resistant RPMI-8226, 72 h

## OCCn1cc(-c2ccc3c(c2)CC/C3=N\O)c(-c2ccncc2)n1
[1]
  Ratio IC50: 1
[2]
  IC50: 10 µM
[3]
  IC50: 10 µM
[4]
  Ratio IC50: 1
[5]
  IC50: 10 µM
[6]
  IC50: 10 µM
[7]
  Ratio IC50: 1
[8]
  IC50: 10 µM
[9]
  IC50: 10 µM

## O=C(O)c1ccc2c3c1cccc3c(=O)n1c3ccccc3nc21
[10]
  IC50: 10 µM
[11]
  IC50: 10 µM
[12]
  Ratio IC50: 1
[13]
  Ratio IC50: 1
[14]
  IC50: 10 µM
[15]
  IC50: 10 µM
[16]
  IC50: 10 µM
[17]
  Ratio IC50: 1
[18]
  IC50: 10 µM

## CNC(=O)c1cc(Oc2ccc(NC(=O)Nc3ccc(Cl)c(C(F)(F)F)c3)c(F)c2)ccn1 [REGORAFENIB]
[19]
  Ratio IC50: 2.45
[20]
  IC50: 9.12 µM
[21]
  IC50: 10 µM
[22]
  IC50: 9.12 µM
[23]
  IC50: 3.55 µM
[24]
  IC50: 6.17 µM
[25]
  Ratio IC50: 1.48
[26]
  IC50: 6.17 µM
[27]
  IC50: 2.76 µM
[28]
  IC50: 10 µM
[29]
  Ratio IC50: 1.1
[30]
  Ratio IC50: 2.45
[31]
  Ratio IC50: 1.48
[32]
  Ratio IC50: 1.1
[33]
  IC50: 4.07 µM
[34]
  IC50: 3.55 µM
[35]
  IC50: 4.07 µM
[36]
  IC50: 2.76 µM
